The target in the experiment is T1, human CCR6 (Homo sapiens, UniProt P51684).
T1 sequence (P51684 1-374): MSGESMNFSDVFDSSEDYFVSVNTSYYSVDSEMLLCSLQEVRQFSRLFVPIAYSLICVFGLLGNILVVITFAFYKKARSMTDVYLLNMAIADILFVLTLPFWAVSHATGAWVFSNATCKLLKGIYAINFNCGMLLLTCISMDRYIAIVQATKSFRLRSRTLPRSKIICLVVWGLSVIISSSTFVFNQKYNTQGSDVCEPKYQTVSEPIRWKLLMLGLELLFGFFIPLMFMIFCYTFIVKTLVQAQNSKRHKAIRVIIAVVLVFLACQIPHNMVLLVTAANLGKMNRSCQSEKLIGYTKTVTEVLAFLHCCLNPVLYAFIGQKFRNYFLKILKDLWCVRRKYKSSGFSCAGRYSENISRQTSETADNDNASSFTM
In words: Human CCR6-CRE reporter assay. It counts as cell-based. Also on record: The second construct contained the open reading frame of human CCR6 in the pUNO1 backbone; host or cells: 293FT cells. The note with it: relative -Log IC50; 293FT cells transfected with human CCR6 and CRE-luciferase reporter; 6 μM Forskolin, 6 nM CCL20; 5 h. How it is done:
Human CCR6-CRE Reporter Assay
293FT cells were transfected with 2 constructs using TransIT-293 (Mirus). The first construct (pGL4.29, Promega) expressed the luciferase reporter gene luc2P in response to the binding of cAMP-induced CREB to the CREelement in its promoter. The second construct contained the open reading frame of human CCR6 in the pUNO1 backbone under the control of an enhanced CMV promoter (InVivoGen). 48 h after transfection, cells were harvested and diluted to 750,000 cells/ml in culture medium (DMEM, 10% FBS, 1× pen/strep (Gibco 15140)). Compounds were 2.5-fold serially diluted in DMSO. Further dilutions were made in assay medium (DMEM, 10% FBS, 1× pen/strep, 6 μM Forskolin, 6 nM CCL20). 4 μl of the compound solution was added to a white MW384 plate, followed by 20 μl of the cell suspension. Final DMSO concentration in the assay was 0.1%. The MW384 plate was placed in an incubator at 37° C., 5% CO2 for 5 h. Luciferase activity was determined by addition of 24 μl of a 2.5× diluted BriteLite luciferase solution (Perkin Elmer), followed by luminescence measurement using a VICTOR Plate reader (Perkin Elmer). […] The relative −Log IC50 was determined with GraphPad Prism 9 using a four-parameter dose-response model.
In general terms: A reporter such as luciferase makes a cellular process visible.
By IC50 is commonly meant the concentration needed to halve the response being measured. High values mean a need for much substance, low ones inhibition by little substance. Take `Cc1cn2cc(-c3ccc(S(=N)(=O)[C@H]4CC[C@H](Nc5ccc(S(F)(F)(F)(F)F)cc5)CC4)cc3)ncc2n1` (stereo partly drawn) [Example 103, (4-{2-methylimidazo[1,2-a]pyrazin-6-yl}phenyl)[trans-4-{[4-(pentafluoro-λ^6-sulfanyl)phenyl]Amino}cyclohexyl](imino)-λ^6-sulfanone]: the IC50 is 1260 nM. That is a single-digit micromolar value.

Turning to `Cc1n[nH]c2ccc(-c3ccc(S(=O)(=O)[C@H]4CC[C@@H](Nc5ccc(S(F)(F)(F)(F)F)cc5)CC4)cc3)cc12` [Example 5, 4-(pentafluoro-λ^6-sulfanyl)-N-[cis-4-[4-(3-methyl-2H-indazol-5-yl)benzenesulfonyl]cyclohexyl]aniline], the IC50 is 501 nM. This IC50 is about 2.5-fold lower than that of the molecule before.

In turn, `N#Cc1c[nH]c2ccc(-c3ccc(S(=O)(=O)[C@H]4CC[C@@H](Nc5ccc(S(F)(F)(F)(F)F)cc5)CC4)cc3)cc12` [Example 8, 5-(4-{[cis-4-{[4-(pentafluoro-λ^6-sulfanyl)phenyl]Amino}cyclohexyl]sulfonyl}phenyl)-1H-indole-3-carbonitrile] had an IC50 of 1260 nM.

`O=c1[nH]cnn2cc(-c3ccc(S(=O)(=O)[C@H]4CC[C@H](Nc5ccc(S(F)(F)(F)(F)F)cc5)CC4)cc3)cc12` [Example 55, 6-(4-{[trans-4-{[4-(pentafluoro-λ^6-sulfanyl)phenyl]Amino}cyclohexyl]sulfonyl}phenyl)-3H,4H-pyrrolo[2,1-f][1,2,4]triazin-4-one] gave a half-maximal inhibitory concentration (IC50) of 31.6 nM.

For `N=S(=O)(c1ccc(-c2ccc3c(c2)CNC3=O)cc1)[C@H]1CC[C@H](Nc2ccc(S(F)(F)(F)(F)F)cc2)CC1` (stereo partly drawn) [Example 112, 5-(4-{[trans-4-{[4-(pentafluoro-λ^6-sulfanyl)phenyl]Amino}cyclohexyl]sulfonimidoyl}phenyl)-2,3-dihydro-1H-isoindol-1-one], it took 398 nM to reach half-maximal inhibition (IC50).

Regarding `O=S(=O)(c1ccc(-c2ccc3nccn3c2)cc1Cl)N1CCC(Nc2ccc(S(F)(F)(F)(F)F)cc2)CC1` [Example 79, 1-(2-chloro-4-{imidazo[1,2-a]pyridin-6-yl}benzenesulfonyl)-N-[4-(pentafluoro-λ^6-sulfanyl)phenyl]piperidin-4-amine], the IC50 is 1580 nM. This IC50 is about 4-fold higher than that of the molecule before.

Regarding `N#Cc1ccc(-c2ccc(S(=N)(=O)N3CCC(Nc4ccc(S(F)(F)(F)(F)F)cc4)CC3)cc2)cc1` (centres unmarked) [Example 122, 4′-[(4-{[4-(pentafluoro-λ^6-sulfanyl)phenyl]Amino}piperidin-1-yl)sulfonimidoyl]-[1,1′-biphenyl]-4-carbonitrile], it took 398 nM to reach half-maximal inhibition (IC50).

Turning to `N=S(=O)(c1ccc(-c2ccn3ncnc3c2)cc1)[C@H]1CC[C@H](Nc2ccc(S(F)(F)(F)(F)F)cc2)CC1` (stereo partly drawn) [Example 94, [trans-4-{[4-(pentafluoro-λ^6-sulfanyl)phenyl]Amino}cyclohexyl](4-{[1,2,4]triazolo[1,5-a]pyridin-7-yl}phenyl)(imino)-λ^6-sulfanone], the IC50 was 501 nM. The IC50 values of the last two molecules are within 1.5-fold of each other.

For `Cc1nnc2cc(-c3ccc(S(=N)(=O)[C@H]4CC[C@H](Nc5ccc(S(F)(F)(F)(F)F)cc5)CC4)cc3)ccn12` (stereo partly drawn) [Example 104, (4-{3-methyl-[1,2,4]triazolo[4,3-a]pyridin-7-yl}phenyl)[trans-4-{[4-(pentafluoro-λ^6-sulfanyl)phenyl]Amino}cyclohexyl](imino)-λ^6-sulfanone], the IC50 was 398 nM.

`Cc1cnc2ccc(-c3ccc(S(=O)(=O)N4CCC(Nc5ccc(S(F)(F)(F)(F)F)cc5)CC4)c(F)c3)cn12` [Example 67, 1-(2-fluoro-4-{3-methylimidazo[1,2-a]pyridin-6-yl}benzenesulfonyl)-N-[4-(pentafluoro-λ^6-sulfanyl)phenyl]piperidin-4-amine] showed an IC50 of 631 nM.

The molecule `O=S(=O)(c1ccc(-c2ccc3nnc(C4CCCC4)n3c2)cc1)N1CCC(Nc2ccc(S(F)(F)(F)(F)F)cc2)CC1` [Example 31, 1-(4-{3-cyclopentyl-[1,2,4]triazolo[4,3-a]pyridin-6-yl}benzenesulfonyl)-N-[4-(pentafluoro-λ^6-sulfanyl)phenyl]piperidin-4-amine] had an IC50 of 63.1 nM. This IC50 is about 10-fold lower than that of the molecule before.

For `N#Cc1cnc2ccc(-c3ccc(S(=O)(=O)N4CCC(Nc5ccc(S(F)(F)(F)(F)F)cc5)CC4)cc3F)cn12` [Example 71, 6-{2-fluoro-4-[(4-{[4-(pentafluoro-λ^6-sulfanyl)phenyl]Amino}piperidin-1-yl)sulfonyl]phenyl}imidazo[1,2-a]pyridine-3-carbonitrile], inhibition was half-maximal at 1000 nM (IC50).

In turn, `O=S(=O)(c1ccc(-c2cc3cc[nH]c3cn2)cc1)[C@H]1CC[C@H](Nc2ccc(S(F)(F)(F)(F)F)cc2)CC1` [Example 146, 4-(pentafluoro-λ^6-sulfanyl)-N-[trans-4-(4-{1H-pyrrolo[2,3-c]pyridin-5-yl}benzenesulfonyl)cyclohexyl]aniline] gave an IC50 of 794 nM.

The molecule `CN(C)C(=O)c1ccc(-c2ccc(S(=N)(=O)[C@H]3CC[C@H](Nc4ccc(S(F)(F)(F)(F)F)cc4)CC3)cc2)cn1` (stereo partly drawn) [Example 100, N,N-dimethyl-5-(4-{[trans-4-{[4-(pentafluoro-λ^6-sulfanyl)phenyl]Amino}cyclohexyl]sulfonimidoyl}phenyl)pyridine-2-carboxamide] showed an IC50 of 794 nM.

With `O=S(=O)(c1ccc(-c2ccc3nnc([C@@H]4CCNC4)n3c2)cc1)N1CCC(Nc2ccc(S(F)(F)(F)(F)F)cc2)CC1` [Example 165, N-[4-(pentafluoro-λ^6-sulfanyl)phenyl]-1-(4-{3-[(3R)-pyrrolidin-3-yl]-[1,2,4]triazolo[4,3-a]pyridin-6-yl}benzenesulfonyl)piperidin-4-amine], inhibition was half-maximal at 794 nM (IC50).

Take `CC(C)c1nnc2ccc(-c3ccc(S(=N)(=O)[C@H]4CC[C@H](Nc5ccc(S(F)(F)(F)(F)F)cn5)CC4)cc3)cn12` (stereo partly drawn) [Example 171, {4-[3-(propan-2-yl)-[1,2,4]triazolo[4,3-a]pyridin-6-yl]phenyl}[trans-4-{[5-(pentafluoro-λ^6-sulfanyl)pyridin-2-yl]amino}cyclohexyl](imino)-λ^6-sulfanone]: the IC50 is 100 nM. Against the preceding molecule, the IC50 is about 7.9-fold lower.

In turn, `CN(C)C(=O)c1ccc(-c2ccc(S(=N)(=O)[C@H]3CC[C@H](Nc4ccc(S(F)(F)(F)(F)F)cc4)CC3)cc2)nc1` (stereo partly drawn) [Example 106, N,N-dimethyl-6-(4-{[trans-4-{[4-(pentafluoro-λ^6-sulfanyl)phenyl]Amino}cyclohexyl]sulfonimidoyl}phenyl)pyridine-3-carboxamide] gave an IC50 of 1580 nM.

As for `CN(C)C(=O)c1ccc(-c2ccc(S(=O)(=O)[C@H]3CC[C@@H](Nc4ccc(S(F)(F)(F)(F)F)cc4)CC3)cc2)nc1` [Example 45, N,N-dimethyl-6-(4-{[cis-4-{[4-(pentafluoro-λ^6-sulfanyl)phenyl]Amino}cyclohexyl]sulfonyl}phenyl)pyridine-3-carboxamide], half-maximal inhibition (IC50) was put at 1580 nM.

The molecule `O=S(=O)(c1ccc(-c2ccc3nnc([C@H]4CCNC4)n3c2)cc1)N1CCC(Nc2ccc(S(F)(F)(F)(F)F)cc2)CC1` [Example 166, N-[4-(pentafluoro-λ^6-sulfanyl)phenyl]-1-(4-{3-[(3S)-pyrrolidin-3-yl]-[1,2,4]triazolo[4,3-a]pyridin-6-yl}benzenesulfonyl)piperidin-4-amine] had a concentration for half-maximal inhibition (IC50) of 794 nM.

On to `CP(C)(=O)c1ccc(-c2ccc(S(=O)(=O)[C@H]3CC[C@H](Nc4ccc(S(F)(F)(F)(F)F)cc4)CC3)cc2)cc1` [Example 57, 4-(pentafluoro-λ^6-sulfanyl)-N-[trans-4-{[4′-(dimethylphosphoryl)-[1,1′-biphenyl]-4-yl]sulfonyl}cyclohexyl]aniline], for which the midpoint of inhibition, the IC50, lay at 200 nM.

On to `N=S(=O)(c1ccc(-c2ccc(C(N)=O)cn2)cc1)[C@H]1CC[C@H](Nc2ccc(S(F)(F)(F)(F)F)cc2)CC1` (stereo partly drawn) [Example 111, 6-(4-{[trans-4-{[4-(pentafluoro-λ^6-sulfanyl)phenyl]Amino}cyclohexyl]sulfonimidoyl}phenyl)pyridine-3-carboxamide], for which half-maximal inhibition (IC50) required 1000 nM. This IC50 lies about 5-fold higher than the previous one.

For the molecule `O=S(=O)(c1ccc(-c2ccc3nccn3c2)cn1)N1CCC(Nc2ccc(S(F)(F)(F)(F)F)cc2)CC1` [Example 75, 1-[(5-{imidazo[1,2-a]pyridin-6-yl}pyridin-2-yl)sulfonyl]-N-[4-(pentafluoro-λ^6-sulfanyl)phenyl]piperidin-4-amine], the IC50 is 1000 nM. This lies in the single-digit micromolar range.

Turning to `N=S(=O)(c1ccc(-c2ccc3c(c2)C(=O)NC3)cc1)[C@H]1CC[C@H](Nc2ccc(S(F)(F)(F)(F)F)cc2)CC1` (stereo partly drawn) [Example 115, 6-(4-{[trans-4-{[4-(pentafluoro-λ^6-sulfanyl)phenyl]Amino}cyclohexyl]sulfonimidoyl}phenyl)-2,3-dihydro-1H-isoindol-1-one], half-maximal inhibition (IC50) required 398 nM.

Source of the values: US20260070902A1, “SULFONYL DERIVATIVES AS CCR6 INHIBITORS” (Hoffmann-La Roche Inc., priority 2022, published 2026).
